Read-outs that look alike come from different tables or passages of the source.
Assay: First-in-human Part 1 single ascending dose blood PK
Assay type: in vivo
Procedure: A first-in-human study was conducted to assess the safety and tolerability, pharmacokinetics (PK) and pharmacodynamics (PD) of single and multiple doses of compound (I) both as once daily (qd) and twice daily (bid) oral administration in healthy volunteers and those with atopic diathesis, to support further clinical development of compound (I) in autoimmune diseases. This study also explored the effect of food intake.
First-in-human study in up to approximately 168 healthy volunteers (HVs), of which 64 (in Parts 2 & 4) had asymptomatic atopic diathesis. • Part 1 was a double-blind (subject and investigator blind, sponsor unblinded), placebo-controlled single ascending dose (SAD) escalation study of 10 cohorts (N=80) • Part 2 was a double-blind (subject and investigator blind, sponsor unblinded), placebo-controlled multiple ascending dose (MAD) (13 doses over 12 days) escalation study employing once daily dosing in 6 cohorts in healthy volunteers with asymptomatic atopic diathesis (N=48) • Part 3 was a single dose open-label crossover food effect study in 12 HVs • Part 4 was a double-blind (subject and investigator blind, sponsor unblinded), placebo-controlled multiple dose (25 doses over 12 days) study employing twice daily dosing in 2 cohorts of healthy volunteers with asymptomatic atopic diathesis (N=16)
In Part 1, subjects were admitted to the study site on Day −2 or −1 for baseline safety assessments and to confirm eligibility. Eligible subjects received a single dose of compound (I) or placebo under fasting conditions on Day 1. They were domiciled from Day −1 to the morning of Day 5 (96 hours post last drug administration).
Subjects were assigned to one of the following 10 cohorts. In each cohort, 8 subjects were randomized to either compound (I) or matching placebo in an overall 6:2 ratio. The first sub-cohort was randomized in a 1:1 ratio as one subject on compound (I) and one on matching placebo. The remaining 6 subjects per cohort, dosed after a 48-hour observation period of the initially dosed 2 subjects, were randomized in a 5:1 ratio. • Cohort 1: single oral dose of 0.5 mg compound (I) or matching placebo • Cohort 2: single oral dose of 1.5 mg compound (I) or matching placebo • Cohort 3: single oral dose of 5 mg compound (I) or matching placebo • Cohort 4: single oral dose of 15 mg compound (I) or matching placebo • Cohort 5: single oral dose of 30 mg compound (I) or matching placebo • Cohort 6: single oral dose of 60 mg compound (I) or matching placebo • Cohort 7: single oral dose of 100 mg compound (I) or matching placebo • Cohort 8: single oral dose of 200 mg compound (I) or matching placebo • Cohort 9: single oral dose of 400 mg compound (I) or matching placebo • Cohort 10: single oral dose of 600 mg compound (I) or matching placebo
Pharmacokinetic samples were obtained in blood and evaluated in all subjects at all dose levels. The samples from placebo subjects were not analyzed. The samples for PK assessments from subjects were collected at time points defined in the study. Compound (I) concentrations were determined in blood by a validated LC-MS/MS method.

`C=CC(=O)N(C)CCOc1c(N)ncnc1-c1cc(F)cc(NC(=O)c2ccc(C3CC3)cc2F)c1C` [Compound of Formula (I), N-(3-(6-Amino-5-(2-(N-methylacrylamido)ethoxy)pyrimidin-4-yl)-5-fluoro-2-methylphenyl)-4-cyclopropyl-2-fluorobenzamide] gave a half-life (human, blood, oral, single ascending doses, dose-independent, read-out: distribution phase T1/2 (converted)) of roughly 1 h, an MRT (human, blood, oral, single ascending doses, read-out: mean residence time (MRT) in the circulation) of 1 to 5 h and a half-life (human, blood, oral, single dose 100 mg, read-out: terminal half-life (converted)) of 4 h. For the same compound, the half-life (human, blood, oral, single dose 600 mg, read-out: terminal half-life (converted)) was 18 h and the “oral blood clearance CL/F, estimate across all cohorts” value (single dose) was “about 383 L/h”.

— patent publication US12383556B2, “Methods of treating Sjögren's syndrome using a Bruton's tyrosine kinase inhibitor” (NOVARTIS AG, priority 2019, dated 2025)
